US10722530B2, “Methods of diagnosing and treating cancer” (CASE WESTERN RESERVE UNIVERSITY, priority 2016, dated 2020)

Legend:
A2780 = experiment: Clonogenic survival assay; assay type: cell-based; details: Homo sapiens; A2780 (p53 wt), 24 h treatment, colonies after at least 10 days
Method: (§5) Cancer cells (200-300 cells/well) were seeded in 6-well culture dishes and allowed to adhere overnight. For 5-FdU, cells were treated for 24 h, then gently washed with PBS, and incubated with fresh media for at least 10 days to allow individual colonies to form. […] After 10-18 days, the plates were stained with methylene blue. Colonies containing ≥50 cells were counted. The percentage of survival was determined relative to untreated control averaged over 3 independent experiments.

DLD1 cells = experiment: AP site detection assay (genomic uracil and 5-FU); assay type: cell-based, human; details: for levels of AP sites: 0-200 nM 5-FdU 48 h
Method: The amount of cellular AP sites was assessed as we previously described by using a NIR cyanine-based AP site probe. […] After the reaction, AP site probe with a final concentration of 25 μM was added and incubated at 37° C. for 1 h. Following incubation, extracted DNA was precipitated, and the supernatant was discarded. DNA pellets were resuspended in H2O, and DNA concentrations were measured and adjusted. The fluorescence intensities of each sample were analyzed with 760 nm excitation and emission scan of 790-847 nm.

HCT116 p53 KO cells [1] = system: HCT116 p53 KO cells
Source text: (§6) p53 or UDG knockdown was achieved via shRNA transduction. Lentiviral vectors LV-THM-shp53 (which also expresses a GFP reporter) or LV-Bleo-shp53 to perform p53 KD in WT HCT116 cells were obtained from Case Western Reserve University, Cleveland, Ohio Lentiviral vector targeting GFP (sh-GFP) was used as control. UDG shRNA vectors (shUDG: NM_003362.2-656s21c1, shUDG-2: NM_003362.2-758s21c1, and shUDG-3: NM_003362.2-893s21c1) were purchased from Sigma, and a scramble targeting shRNA vector (Sigma) was used as paired control. The lentiviral production and infection were performed as previously described. Cells stably infected with LV-THM-p53 were isolated by cell sorting on the basis of their GFP expression.
as §5

A375 = experiment: Clonogenic survival assay; assay type: cell-based; details: Homo sapiens, A-375; A375 (p53 wt), 24 h treatment, colonies after at least 10 days
Method: as §5

[2] = system: cleaved PARP in HCT116 p53 WT cells; experiment: Western blot of apoptotic proteins; assay type: cell-based, human; details: shSCR and shUDG, 25 nM 5-FdU 24 h
Method: (§1) Western blots were performed as previously described Yan et al., Clinical Cancer Research. 2007; 13(5):1532-9. Twenty microgram of protein was loaded on SDS-polyacrylamide gel. The following antibodies were used to detect proteins on the membrane: α-Tubulin (Calbiochem); GAPDH (Santa Cruz Biotechnology); UDG (FL-313) (Santa Cruz Biotechnology); cleaved PARP (Asp214)(19F4) (Cell Signaling); cleaved caspase 3 (Cell Signaling); p53 (FL-393) (Santa Cruz Biotechnology); and p21 (Santa Cruz Biotechnology). For quantitative RT-PCR, total RNA from cells was extracted by using RNeasy Plus Mini Kit (Qiagen). cDNA synthesis was performed by using SuperScript III First Strand Kit (Life Technologies).

[3] = system: cleaved PARP or activated caspase 3 in HCT116 p53 KO cells; experiment: Western blot of apoptotic proteins; assay type: cell-based, human
Method: as §1

[4] = system: HEC1A endometrial cancer cells; experiment: Colony survival assay, shSCR and shUDG cells; assay type: cell-based, human
Method: UDG knockdown was performed via shRNA transduction with validated clone from Sigma-Aldrich. The ID of UDG shRNA clone is NM_003362.2-656s21c1. A non-targeted scramble control shRNA clone (Sigma-Aldrich) was also used. Transfection of shRNA clones was performed according to manufacturer's specifications from Lipofectamine 2000 (Invitrogen). Lentiviral particles were produced via HEK293 cells, and targeted cells were infected and selected with puromycin. The stable UDG knockdown levels were verified for q-PCR and western blot analysis.
DLD1 (200 cells/well) or HEC1A (300 cells/well) cells were plated in 6-well culture dishes and allowed to adhere for 16 h. Cells were treated with drug for 24 h, gently washed twice with 1×PBS, and incubated with fresh media for at least 10 days to allow individual colonies to form. Colonies were stained with methylene blue, and only colonies containing ≥50 cells were counted. The percentage of survival was determined relative to untreated control averaged over 3 independent experiments.

γH2AX foci in DLD1 cells = experiment: γH2AX foci immunofluorescence staining; assay type: cell-based, human; details: 50 nM 5-FdU
Method: (§2) Cells cultured on glass coverslips were treated with 5-FdU in the presence or absence of 10 μM caspase inhibitor Q-VD-OPH (BioVision Inc). Cells were fixed in 3.7% formaldehyde for 10 minutes, blocked with PBS containing 10% FBS and 0.1% Triton X-100 for 20 minutes, washed with PBS three times, and incubated with primary anti-γH2AX antibody (Millipore, dilution: 1:150) in PBS containing 0.1% Triton X-100 at 4° C. overnight. The cells were then washed with PBS three times, incubated with secondary antibodies (Alexa Fluor 594, Life Technologies; dilution: 1:400) in PBS containing 0.1% Triton X-100 for 1 h, and washed with PBS three times. The slides were mounted with antifade solution with DAPI (Cell Signaling) and visualized on a Leica laser microscope.

[5] = system: γH2AX foci in HEC1A cells; experiment: γH2AX foci immunofluorescence staining; assay type: cell-based, human; details: 50 nM 5-FdU
Method: as §2

p53 WT cancer lines = experiment: Clonogenic survival assay, panel of p53 WT lines
Source text: as §6, §5

[6] = system: p53 mutant or deficient lines; experiment: Clonogenic survival assay, panel of p53 mutant or deficient lines; details: for resistance compared with p53 WT cells: cell lines with p53 mutation or deficiency vs p53 WT; for effect of UDG depletion on cytotoxicity: shUDG vs shSCR, p53 mutant or deficient cells
Source text: as §6, §5

HCT116 p53 WT cells = experiment: Flow cytometric assay of apoptosis (Annexin V/PI); assay type: cell-based, human; details: 25 nM 5-FdU 24 h, at 48 h, both UDG expressing and UDG depleted cells
Method: (§3) Cells were seeded in 6-well tissue culture plates (1.5×10^5 cells/well) and allowed to attach overnight. Cells were then treated with 25 nM 5-FdU for 24 h, washed twice with PBS, replenished with drug-free medium at 48, 72, and 96 h. After recovery, the cells floating in the medium were collected. The adherent cells were trypsinized, pelleted, washed in ice-cold PBS, and resuspended in 1× Binding Buffer according to the manufacturer's instructions (FITC Annexin V Apoptosis Detection Kit, BD Pharmingen). Cells were then stained with FITC Annexin V and PI for 15 minutes at room temperature in the dark. Annexin V-FITC detects translocation of […] from the inner to the out cell membrane during early apoptosis, and PI can enter the cells in late apoptosis or necrosis. Untreated cells were used as control for the double staining. The cells were analyzed immediately after staining using a Attune NXT instrument and FlowJo software. For each measurement, at least 20,000 cells were counted.

HCT116 p53 KO cells [7] = experiment: Flow cytometric assay of apoptosis (Annexin V/PI); assay type: cell-based, human; details: 25 nM 5-FdU 24 h
Method: as §3

[8] = system: cleaved PARP in HEC1A cells; experiment: Western blot of cleaved PARP; assay type: cell-based, human; details: HEC1A, 50 nM 5-FdU
Method: (§4) Western blots were performed as described in Yan et al. (Clin Cancer Res. (2007) 13:1532-39). Antibodies used were as follows: Anti-UDG (FL-313) (Santa Cruz Biotechnology), anti-Cleaved PARP (Asp214)(19F4) (Cell Signaling), and anti-α-Tubulin (Calbiochem).

[9] = system: cleaved PARP in DLD1 cells; experiment: Western blot of cleaved PARP; assay type: cell-based, human; details: DLD1, 50 nM 5-FdU
Method: as §4

Method for DLD1 colon cancer cells: UDG knockdown was performed via shRNA transduction with validated clone from Sigma-Aldrich. […] A non-targeted scramble control shRNA clone (Sigma-Aldrich) was also used. Transfection of shRNA clones was performed according to manufacturer's specifications from Lipofectamine 2000 (Invitrogen). Lentiviral particles were produced via HEK293 cells, and targeted cells were infected and selected with puromycin. The stable UDG knockdown levels were verified for q-PCR and western blot analysis.
Colonies were stained with methylene blue, and only colonies containing ≥50 cells were counted. The percentage of survival was determined relative to untreated control averaged over 3 independent experiments.

## O=c1[nH]c(=O)n([C@H]2C[C@H](O)[C@@H](CO)O2)cc1F [5-FdU, 5-fluorodeoxyuridine]
A2780
  IC50: 0.00132 ± 0.00033 µM
DLD1 cells; 100 nM 5-FdU 24 h
  level of uracil and 5-FU in UDG depleted cells relative to shSCR-transfected cells: about three times higher
DLD1 cells; shSCR-transfected cells
  levels of AP sites: remained low
DLD1 cells; shUDG-transfected cells, dose dependent
  levels of AP sites: dramatic increase
DLD1 colon cancer cells; DLD1 shSCR, high concentrations
  cell survival in shSCR-transfected cells: moderate loss of cell viability
DLD1 colon cancer cells; DLD1 shUDG vs shSCR
  effect of UDG depletion on drug sensitivity: highly sensitized
HCT116 p53 KO cells [1]; HCT116 p53 KO vs p53 WT
  resistance compared with p53 WT cells: more resistant
HCT116 p53 KO cells [1]; HCT116 p53 KO, shUDG vs shSCR
  effect of UDG depletion on cytotoxicity: greatly enhanced cytotoxicity
A375
  IC50: 0.111 ± 0.0018 µM
[2]
  expression of cleaved PARP: induced at 48 h
[3]; p53 KO cells depleted of UDG, 48 h to 96 h
  induction of cleaved PARP or activated caspase 3: robustly induced
[3]; p53 KO cells expressing UDG, 25 nM 5-FdU 24 h
  induction of cleaved PARP or activated caspase 3: not detected
[4]; HEC1A shSCR, high concentrations
  cell survival in shSCR-transfected cells: moderate loss of cell viability
[4]; HEC1A shUDG vs shSCR
  effect of UDG depletion on drug sensitivity: highly sensitized
γH2AX foci in DLD1 cells; DLD1 UDG depleted
  γH2AX foci number and percentage of cells with over 10 foci over time: remained persistent
γH2AX foci in DLD1 cells; DLD1 shSCR, after maximum at 12 h
  γH2AX foci number and percentage of cells with over 10 foci over time: gradually declined
[5]; HEC1A UDG depleted
  γH2AX foci number and percentage of cells with over 10 foci over time: remained high
[5]; HEC1A shSCR, after maximum at 48 h
  γH2AX foci number and percentage of cells with over 10 foci over time: reduced at 72 h and 96 h
p53 WT cancer lines; read-out: IC50 values, p53 WT cancer lines except A375
  IC50: < 0.01 µM
p53 WT cancer lines; shUDG vs shSCR, p53 WT cell lines
  effect of UDG depletion on cytotoxicity: did not alter the cytotoxicity
[6]
  resistance compared with p53 WT cells: significantly more resistant
  effect of UDG depletion on cytotoxicity: selectively sensitized
[6]; listed as 5FdU
  resistance compared with p53 WT cells: relatively more resistant
  effect of UDG depletion on cytotoxicity: overcame this resistance
[6]; read-out: IC50 values, p53 mutant or deficient lines
  IC50: > 0.1 µM
HCT116 p53 WT cells
  cell death (Annexin V and PI positive): significant cell death
HCT116 p53 KO cells [7]; UDG depleted cells, 48 to 96 h
  cell death (Annexin V and PI positive): significantly elevated
HCT116 p53 KO cells [7]; UDG expressing cells
  cell death (Annexin V and PI positive): significantly lower
[8]
  time of 5-FdU treatment until appearance of cleaved PARP: > 96 h
[9]
  time of 5-FdU treatment until appearance of cleaved PARP: > 24 h
